Data as given in article PMC7269032, “Chiral 4-O-acylterpineol as transdermal permeation enhancers: insights of the enhancement mechanisms of a transdermal enantioselective delivery system for flurbiprofen” (Drug Delivery, 2020).
≈ marks a conversion by molar mass, not a printed value. Where two headings read alike, the source gives them in different places.

Tests used:
[1] = Determination of drug oil-water partition coefficient (log P); assay type: physicochemical; settings: n-octanol/water, 25 °C
Procedure: The same volume of water and n-octanol were mixed and shaken for 24 h at 25 °C, then the equal of water saturated n-octanol solution and n-octanol saturated aqueous solution through liquid-separation were obtained. The SR-FP or its single enantiomer (0.001 g) were added in the saturated solution, which were mixed to the ratio of 1:4, then shook for 24–48 h followed by stand for 24 h. (The shakings were in constant temperature air bath oscillator at 25 °C). Afterwards, the HPLC method was utilized to detect the concentration of the substance in the oil phase and the water phase.

[2] = Determination of drug solubility; assay type: physicochemical; settings: pure water, 25 °C; for solubility: 48 h
Procedure: The excess SR-FP or its single enantiomer (0.01 g) were sealed to 10 mL of pure water at 25 °C in glass vials and waved for 48 h in constant temperature air bath oscillator […]. Finally, the contents were passed through the 0.45 μm microporous membrane and centrifuged at 10,000 rpm for 5 min, then aliquots for the supernatant saturated solution were diluted and analyzed by HPLC. The experiments were performed in triplicate.

[3] = In vivo pharmacokinetic study, transdermal patch administration; parameters: species or system rabbit; settings: rabbits, patch loaded with individual enantiomer, plasma (Figure 2(F))
Procedure: Thirty-six male rabbits weighing 2.5 kg were divided into six groups, and the back skin was intact without erythema. For patch administration studies, patches without or with enhancers (120 mg/kg) were stuck to the shaved area of the rabbits. They were administered as follows: (1) control group: only the SR-FP; (2) enhancer group A: prepared SR-FP patch with 5% d-4-TER; (3) enhancer group B: prepared SR-FP patch with 5% d-4-T-dC18; (4) enhancer group C: prepared SR-FP patch with 5% l-4-T-dC18; (5) enhancer group D: prepared S-FP patch with 5% d-4-T-dC18; (6) enhancer group E: prepared R-FP patch with 5% d-4-T-dC18. In order to prevent the patches fallen off, gauze and medical tape were used to fix the patches. The blood from ear vein of rabbit was collected 0.5 mL at 0.5, 1, 2, 4, 6, 8, 12, 16, 20, 24, 26, 28, 30, 32, 36 and 48 h, and the patch was removed after 24 h, then the residual drug was wiped with physiological saline. The sample was processed by the same method as IV. All animal studies were carried out in accordance with the NIH Guidelines for the Care and Use of Laboratory Animals and were also approved by the Life Science Research Center of North China University of Science and Technology.
(§1) After being thawed and equilibrated to room temperature, an aliquot (100 μL) of plasma sample was spiked with […] (10 μL) of 40.0 μg/mL and 400 μL methanol. The samples were vortexed for 5 min and followed by centrifugation at 16,000 rpm for 10 min at 25 °C. After centrifugation, the supernatant was transferred to a clean tube and evaporated to dryness at 40 °C under a gentle stream of nitrogen. The dried samples were reconstituted with 100 μL mobile phase, vortexed and centrifuged before analysis.
(§2) Pharmacokinetic parameters were calculated using WinNonlin® software (Pharsight Corporation, San Diego, CA, USA) based on noncompartmental model, including the maximal plasma drug concentration (Cmax), the time to reach Cmax (Tmax) which were obtained from the observed data, the area under the time–concentration curve from time 0 to time t (AUC0–t) of distribution which was calculated using the linear trapezoidal rule, the mean residence time (MRT), the plasma clearance (Cl) and the apparent volume(V). Enhancement factor (Ef) was calculated from the following equation: Ef=AUC0−t(with enhancer)/AUC0−t(without enhancer)
(§3) The concentrations of drugs in the receptor medium or rabbit plasma were determined using a validated HPLC method. The HPLC system was equipped with a Shimadzu HPLC apparatus, including an LC-20AT pump, a SIL20A syringe, an SPD-20A detector, and a CTO-20A column oven. The propylparaben was used as an internal standard, and the flow rate of chromatographic analysis was set 1.0 mL/min. For in vitro analysis of SR-FP, thermo (USA) C18 column (150 mm × 4.6 mm, 5 μm particle) maintained at 40 °C was used to elute SR-FP, the mobile phase was used methanol and 1% aqueous glacial acetic acid (60:40, v/v) and the wavelength was set at 247 nm. The HPLC conditions of S-FP and R-FP were as follows: The column was CHIRALPAK®IA (4.6 mm × 250 mml, 5 μm particle diameter) of DAOCEL (Shanghai, China). The mobile phase consisted of acetonitrile and trifluoroacetic acid (0.05%, 50:50, v/v), the wavelength was set at 254 nm. For in vivo analysis of S-FP and R-FP, the mobile phase consisted of acetonitrile and trifluoroacetic acid (0.05%, 35:65, v/v), and other conditions were the same to in vitro analysis.
Absolute bioavailability (F) was calculated by the following equation: F=AUCpatch·Dosei.v./AUCi.v.·Dosepatch

[4] = In vivo pharmacokinetic study, intravenous administration; parameters: species or system rabbit; settings: rabbits, IV of 4.8 mg/kg SR-FP, enantiomer measured in plasma
Procedure: A certain amount of FP was dissolved in a mixed solution of sterile water and Tween-80 at 2.0 mg/mL. The fresh intravenous solution was prepared just before intravenous administration.
Six male rabbits weighing 2.5 kg were selected for IV. A capacity of 4.8 mg/kg FP (0.2 g FP was dissolved in a mixed solution of pure water and Tween80) was administered to the one ear vein of rabbit, the other ear vein of rabbit was phlebotomized about 0.5 mL at 5, 10, 15, 30 min and 1, 2, 3, 4, 6, 8, 10, 12 h. The blood samples were centrifuged at 4000 rpm for 10 min and kept at –80 °C.
as §1, §2
as §3, with “For in vivo analysis of S-FP and R-FP, the mobile phase consisted of acetonitrile and trifluoroacetic acid (0.05%, 35:65, v/v), and other conditions were the same to in vitro analysis.” left out

[5] = In vitro permeation experiment of FP drug-in-adhesive patches in two-chamber diffusion cells; assay type: in vitro ADME, rabbit
Description: Male, Japanese big-eared rabbits weighting 2.5–3.0 kg were purchased from the animal experimental center of North China University of Science and Technology. The experimental process was in accordance with the ‘Ethical Guide for Laboratory Animal Investigation’ and was approved by the Animal Experimental Center Committee of North China University of Science and Technology. All efforts were made to minimize animal suffering and to limit the number of animals used.
The hair of back skin was removed by clipper and electrical shaver carefully when the rabbits were anesthetized with ether. Full thickness of back skin was excised after the rabbit was sacrificed by injecting air into the ear veins, and the subcutaneous fat tissue was carefully removed using the surgical scissor and scalpel. The integrity of the skin was confirmed by microscopic observation method. The treated rabbit skin was cut into a size of 1.5 cm × 1.5 cm and stored at –80 °C until use. Before use, it needed to be immersed in physiological saline for 20 min to thaw.
Drug-in-adhesive patch (drug loading of 5% by adhesive) was prepared by using solvent evaporation method. An appropriate amount of FP was dissolved in a suitable amount of ethyl acetate, which was later added to the adhesive and mixed thoroughly with a mechanical stirrer. The resulting solution was coated onto release liner (Scotch Pak® 9744, 3M, USA) by using lab coating unit (6025, BLD Instruments Co. Ltd., Guangdong, China). The coated laminate was dried at 50 °C for 15 min. After the solvent had been removed, it was covered with backing laminate (Scotch Pak® 9732, 3M).
Modified two-chamber diffusion cells with an effective diffusion area of 0.95 cm^2 were employed in the in vitro permeation experiment. The cells were kept at 32 °C by the circulated water bath and stirred with magnetic bars at 400 rpm. The dermis side of the skin was attached to one-half of the side-by-side diffusion cells, the FP patch was pressed on the skin with the adhesive side facing the SC, and pH 7.4 PBS was used as the receptor medium. At predetermined time points (2, 4, 6, 8, 10, 12 and 24 h), the receptor solution of 2.0 mL was withdrawn and equal volume PBS was added to maintain a constant volume of receptor solution.
The cumulative amount of each drug permeating per unit area (Q) versus time was plotted. Q24h=(3.5Ci+2.0∑i=1n−1Ci−1)/A
Q was the cumulative skin permeation amount. Ci was the concentration in the receiver compartment at time i, A was the effective diffusion area of diffusion.
The steady-state flux (Js, µg/cm^2/h) was calculated from the slope of linear region of the plot. The lag-time was determined by extrapolating the linear portion of the curve to the abscissa. Js=dQr/Adt
Enhancement ratio (ER) was used to evaluate the activity of the enhancers, which is the ratio of Q24h with enhancer to Q24h without enhancer. ER=Q24h(with enhancer)/Q24h(without enhancer)

| SMILES | logP [1] | solubility [2] | chiral inversion to the other enantiomer in vivo [3] | Cl [4] | MRT [4] | Tlag of R-FP ([5]; permeant R-FP, patch 5% drug (w/w), enhancer equimolar to 5% 4-TER (control: no enhancer)) | Js of R-FP ([5]; permeant R-FP, patch 5% drug (w/w), enhancer equimolar to 5% 4-TER (control: no enhancer), mean ± SD, n = 4) | Tlag of S-FP ([5]; permeant S-FP, patch 5% drug (w/w), enhancer equimolar to 5% 4-TER (control: no enhancer)) | Js of S-FP ([5]; permeant S-FP, patch 5% drug (w/w), enhancer equimolar to 5% 4-TER (control: no enhancer), mean ± SD, n = 4) | logP ([1]; read-out: logP) | solubility at 48 h [2] | cumulative transport of SR-FP at 24 h ([5]; 0% enhancer level (w/w)) | Tlag of SR-FP ([5]; permeant SR-FP, patch 5% drug (w/w), enhancer equimolar to 5% 4-TER (control: no enhancer)) | Js of SR-FP ([5]; permeant SR-FP, patch 5% drug (w/w), enhancer equimolar to 5% 4-TER (control: no enhancer), mean ± SD, n = 4) |
| --- | --- | --- | --- | --- | --- | --- | --- | --- | --- | --- | --- | --- | --- | --- |
| C[C@@H](C(=O)O)c1ccc(-c2ccccc2)c(F)c1 [R-FP] | 1.83 ± 0.09 | 49.82 ± 1.31 µg/mL (≈ 204 µM) | S-FP could be detected | 0.52 ± 0.03 L/h | 1.84 ± 0.15 h | 2.43 h | 2.43 ± 0.18 μg/cm^2/h |  |  |  |  |  |  |  |
| C[C@H](C(=O)O)c1ccc(-c2ccccc2)c(F)c1 [S-FP] | 1.86 ± 0.05 | 46.39 ± 4.30 µg/mL (≈ 190 µM) | had not been observed | 0.30 ± 0.02 L/h | 2.04 ± 0.23 h |  |  | 3.82 h | 2.65 ± 0.29 μg/cm^2/h |  |  |  |  |  |
| CC(C(=O)O)c1ccc(-c2ccccc2)c(F)c1 (stereo not shown) [SR-FP, Flurbiprofen] |  |  |  |  |  |  |  |  |  | 2.28 ± 0.04 | 89.1 ± 5.48 µg/mL (≈ 365 µM) | 122.93 ± 8.02 μg/cm^2 | 3.31 h | 5.54 ± 0.37 μg/cm^2/h |
